Test system: Acinetobacter baumannii strains
Experiment: Antibiotic susceptibility test (CLSI disk diffusion test method, read per CLSI 2016); note: key: ‘S’ means susceptible; ‘I’ means intermediate; ‘R’ means resistant
Type: cell-based

SMILES: CCN1CCN(C(=O)N[C@@H](C(=O)N[C@@H]2C(=O)N3[C@@H]2SC(C)(C)[C@@H]3C(=O)O)c2ccccc2)C(=O)C1=O [Piperacillin, piperacillin]
- antibiotic susceptibility class (host strain YMC14/01/C29): R
- antibiotic susceptibility class (host strain YMC14/01/IP122): R
- antibiotic susceptibility class (host strain YMC14/01/L8): R
- antibiotic susceptibility class (host strain YMC14/01/P31): R
- antibiotic susceptibility class (host strain YMC14/01/P117): R
- antibiotic susceptibility class (host strain YMC14/01/P224): R
- antibiotic susceptibility class (host strain YMC14/01/P727): R
- antibiotic susceptibility class (host strain YMC14/01/P728): R
- antibiotic susceptibility class (host strain YMC14/01/R130): R
- antibiotic susceptibility class (host strain YMC14/01/R160): R
- antibiotic susceptibility class (host strain YMC14/01/R198): R
- antibiotic susceptibility class (host strain YMC14/01/R257): R
- antibiotic susceptibility class (host strain YMC14/01/R270): R
- antibiotic susceptibility class (host strain YMC14/01/R324): R
- antibiotic susceptibility class (host strain YMC14/01/R443): R
- antibiotic susceptibility class (host strain YMC14/01/R451): R
- antibiotic susceptibility class (host strain YMC14/01/R560): R
- antibiotic susceptibility class (host strain YMC14/01/R617): R
- antibiotic susceptibility class (host strain YMC14/01/R671): R
- antibiotic susceptibility class (host strain YMC14/01/R732): R
- antibiotic susceptibility class (host strain YMC14/01/R767): R
- antibiotic susceptibility class (host strain YMC14/01/R904): R
- antibiotic susceptibility class (host strain YMC14/01/R905): R
- antibiotic susceptibility class (host strain YMC14/01/R921): R
- antibiotic susceptibility class (host strain YMC14/01/R941): R
- antibiotic susceptibility class (host strain YMC14/01/R958): R
- antibiotic susceptibility class (host strain YMC14/01/R1006): R
- antibiotic susceptibility class (host strain YMC14/01/R1199): R
- antibiotic susceptibility class (host strain YMC14/01/R1659): R
- antibiotic susceptibility class (host strain YMC14/01/R1722): R
- antibiotic susceptibility class (host strain YMC14/01/R1752): R
- antibiotic susceptibility class (host strain YMC14/01/R2429): R
- antibiotic susceptibility class (host strain YMC14/01/R2572): R
- antibiotic susceptibility class (host strain YMC14/01/R2855): R
- antibiotic susceptibility class (host strain YMC14/01/R2945): R
- antibiotic susceptibility class (host strain YMC14/01/R3007): R
- antibiotic susceptibility class (host strain YMC14/01/R3129): R
- antibiotic susceptibility class (host strain YMC14/01/R3317): R
- antibiotic susceptibility class (host strain YMC14/01/R3474): R
- antibiotic susceptibility class (host strain YMC14/01/R3574): R
- antibiotic susceptibility class (host strain YMC14/01/U313): R
- antibiotic susceptibility class (host strain YMC14/01/U318): R
- antibiotic susceptibility class (host strain YMC14/02/L18): R
- antibiotic susceptibility class (host strain YMC14/02/P47): R
- antibiotic susceptibility class (host strain YMC14/02/R1860): R
- antibiotic susceptibility class (host strain YMC14/02/R2417): R
- antibiotic susceptibility class (host strain YMC14/02/R2599): R
- antibiotic susceptibility class (host strain YMC14/02/R2668): R
- antibiotic susceptibility class (host strain YMC14/02/R2758): R
- antibiotic susceptibility class (host strain YMC14/02/R2781): R
- antibiotic susceptibility class (host strain YMC14/02/R3106): R
- antibiotic susceptibility class (host strain YMC14/02/R3419): R
- antibiotic susceptibility class (host strain YMC14/02/U1607): R
- antibiotic susceptibility class (host strain YMC14/03/L9): R
- antibiotic susceptibility class (host strain YMC14/03/P471): R
- antibiotic susceptibility class (host strain YMC14/03/R122): R
- antibiotic susceptibility class (host strain YMC14/03/R217): R
- antibiotic susceptibility class (host strain YMC14/03/R380): R
- antibiotic susceptibility class (host strain YMC14/03/R618): R
- antibiotic susceptibility class (host strain YMC14/03/R2144): R
- antibiotic susceptibility class (host strain YMC14/03/U4616): R
- antibiotic susceptibility class (host strain YMC14/04/R1078): R
- antibiotic susceptibility class (host strain YMC14/04/R1080): R
- susceptibility category (S/I/R) (host strain YMC14/06/R2359): R
- susceptibility category (S/I/R) (host strain YMC14/08/R1169): R
- susceptibility category (S/I/R) (host strain YMC14/08/T90): R
- susceptibility category (S/I/R) (host strain YMC15/02/R436): R
- susceptibility category (S/I/R) (host strain YMC15/02/T28): R
- susceptibility category (S/I/R) (host strain YMC15/03/R1604): R
- susceptibility category (S/I/R) (host strain YMC15/09/R1869): R
- susceptibility category (S/I/R) (host strain YMC16/01/P11): R
- susceptibility category (S/I/R) (host strain YMC16/01/R123): R
- susceptibility category (S/I/R) (host strain YMC16/01/R198): R
- susceptibility category (S/I/R) (host strain YMC16/01/R353): R
- susceptibility category (S/I/R) (host strain YMC16/01/R380): R
- susceptibility category (S/I/R) (host strain YMC16/01/R397): R
- susceptibility category (S/I/R) (host strain YMC16/01/R405): R
- susceptibility category (S/I/R) (host strain YMC16/03/R4461): R
- susceptibility category (S/I/R) (host strain YMC16/05/R2210): R
- susceptibility category (S/I/R) (host strain YMC16/07/R2512): R
- susceptibility category (S/I/R) (host strain YMC16/09/R2471): R
- susceptibility category (S/I/R) (host strain YMC16/10/R2537): R
- susceptibility category (S/I/R) (host strain YMC16/12/B11422): R
- susceptibility category (S/I/R) (host strain YMC16/12/B11449): R
- susceptibility category (S/I/R) (host strain YMC16/12/B13325): R
- susceptibility category (S/I/R) (host strain YMC16/12/P503): R
- susceptibility category (S/I/R) (host strain YMC16/12/R4637): R
- susceptibility category (S/I/R) (host strain YMC17/01/B8053): R
- susceptibility category (S/I/R) (host strain YMC17/01/B10087): R
- susceptibility category (S/I/R) (host strain YMC17/01/B12075): R
- susceptibility category (S/I/R) (host strain YMC17/01/B13454): R
- susceptibility category (S/I/R) (host strain YMC17/01/P518): R
- susceptibility category (S/I/R) (host strain YMC17/01/R2812): R
- susceptibility category (S/I/R) (host strain YMC17/02/B14): R
- susceptibility category (S/I/R) (host strain YMC17/02/B87): R
- susceptibility category (S/I/R) (host strain YMC17/02/B721): R
- susceptibility category (S/I/R) (host strain YMC17/02/B4039): R
- susceptibility category (S/I/R) (host strain YMC17/02/B4520): R
- susceptibility category (S/I/R) (host strain YMC17/02/B4864): S
- susceptibility category (S/I/R) (host strain YMC17/02/B8414): R
- susceptibility category (S/I/R) (host strain YMC17/02/P523): R
- susceptibility category (S/I/R) (host strain YMC17/02/R541): R
- susceptibility category (S/I/R) (host strain YMC17/02/R2392): R
- susceptibility category (S/I/R) (host strain YMC17/03/B4730): R
- susceptibility category (S/I/R) (host strain YMC17/03/B5000): R
- susceptibility category (S/I/R) (host strain YMC17/03/P971): R
- susceptibility category (S/I/R) (host strain YMC17/03/R348): R
- susceptibility category (S/I/R) (host strain YMC17/03/R585): R
- susceptibility category (S/I/R) (host strain YMC17/03/R1888): R
- susceptibility category (S/I/R) (host strain YMC17/03/R3279): R
- susceptibility category (S/I/R) (host strain YMC17/03/R4077): R
- susceptibility category (S/I/R) (host strain YMC17/03/R4607): R
- susceptibility category (S/I/R) (host strain YMC17/04/R488): R
- susceptibility category (S/I/R) (host strain YMC17/04/R640): R
- susceptibility category (S/I/R) (host strain YMC/17/05/R1095): R

Reference: patent publication US20240000872A1, “NOVEL BACTERIOPHAGE THAT LYSES ACINETOBACTER GENUS BACTERIA HAVING RESISTANCE TO ANTIBIOTICS” (priority 2020, published 2024)
